The test system of test [1] is AChE. The following applies: cited from earlier work.
Test [2] relates to BACE1. The settings on record: cited from earlier work.
Test [3] relates to BuChE. The following applies: cited from earlier work.
The target in test [4] is T1, AChE from Electrophorus electricus (electric eel) (Electrophorus electricus, UniProt O42275).
T1 construct: purchased Sigma-Aldrich C3389
The experiment in a line: biochemical. The settings on record: mean ± SD of three independent experiments.

For test [5], the target named is T2, BACE1 (Homo sapiens, UniProt P56817).
T2 construct: purchased Sigma-Aldrich CS0010
The experiment in a line: In vitro β-secretase (BACE1) activity assay kit (fluorescence). In kind it is biochemical, equine.

Test [6] deals with human AChE. The settings on record: cited from earlier work.
For test [7], the system named is BACE-1. The following applies: cited from earlier work.
Test [8] concerns the target hBuChE. Set-up: method as in PMID 23041347. The settings on record: cited from earlier work.

Our source for the IC50 and Ki values is PMC10573752, “New Benzamides as Multi-Targeted Compounds: A Study on Synthesis, AChE and BACE1 Inhibitory Activity and Molecular Docking” (International Journal of Molecular Sciences, 2023).

The term Ki denotes the dissociation constant of the complex between target and ligand, obtained from inhibition or displacement.

Like-named read-outs stand apart in the source and are kept apart here.

T2 sequence (P56817 46-457 limits assumed): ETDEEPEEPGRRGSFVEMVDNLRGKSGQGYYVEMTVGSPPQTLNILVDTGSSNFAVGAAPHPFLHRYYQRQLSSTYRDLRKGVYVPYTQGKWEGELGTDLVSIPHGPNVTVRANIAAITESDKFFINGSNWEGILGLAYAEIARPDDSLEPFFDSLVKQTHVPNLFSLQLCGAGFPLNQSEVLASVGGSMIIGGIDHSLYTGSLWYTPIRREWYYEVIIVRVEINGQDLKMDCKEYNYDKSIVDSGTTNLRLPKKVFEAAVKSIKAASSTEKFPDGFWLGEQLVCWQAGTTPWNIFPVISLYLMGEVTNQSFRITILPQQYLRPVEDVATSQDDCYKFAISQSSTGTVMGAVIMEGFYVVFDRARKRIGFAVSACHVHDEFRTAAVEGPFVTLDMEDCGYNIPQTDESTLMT
T1 sequence (O42275 24-633): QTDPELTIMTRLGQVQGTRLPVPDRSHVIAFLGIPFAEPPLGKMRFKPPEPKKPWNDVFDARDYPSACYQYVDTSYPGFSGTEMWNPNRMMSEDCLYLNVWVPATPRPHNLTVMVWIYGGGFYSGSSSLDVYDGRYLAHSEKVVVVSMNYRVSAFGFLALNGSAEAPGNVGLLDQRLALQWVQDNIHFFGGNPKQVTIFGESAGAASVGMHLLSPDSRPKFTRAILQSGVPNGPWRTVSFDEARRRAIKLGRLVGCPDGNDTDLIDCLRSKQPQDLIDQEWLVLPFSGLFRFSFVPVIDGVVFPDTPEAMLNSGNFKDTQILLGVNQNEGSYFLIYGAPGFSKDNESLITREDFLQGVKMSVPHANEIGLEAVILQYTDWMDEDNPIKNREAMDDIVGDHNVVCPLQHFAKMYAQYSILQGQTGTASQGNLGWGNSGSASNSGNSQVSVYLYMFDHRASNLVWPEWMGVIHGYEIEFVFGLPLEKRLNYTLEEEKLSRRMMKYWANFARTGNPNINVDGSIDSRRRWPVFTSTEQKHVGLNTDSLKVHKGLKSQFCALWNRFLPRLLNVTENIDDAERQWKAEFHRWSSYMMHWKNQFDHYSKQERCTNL

Take `CN(C)CCOc1ccc(NC(=O)c2ccccn2)cc1` [Compound V]: the IC50 in test [1] (read-out: AChE inhibitory activity IC50) is 2490 ± 190 nM.

In the case of `C[C@@H](NC(=O)c1cccc(C(=O)N[C@@H](c2ccccc2)[C@H](O)CNCCC2CCN(Cc3ccccc3)CC2)c1)c1ccccc1` [Derivative VII], the results for the IC50 in test [1] (read-out: AChE IC50) and in test [2] were 1830 nM and 570 nM, respectively.

With `CCN(CC)Cc1ccccc1CNC(=O)c1cccc(CC(=O)c2ccc(F)cc2)c1` [III], the IC50 in test [3] (read-out: BChE IC50) is 0.08 nM.

On to `CCN(CC)Cc1ccccc1CNC(=O)c1cc(C)cc(CC(=O)c2ccc(F)cc2)c1` [IV], for which the IC50 in test [3] (read-out: BChE IC50) was 0.039 nM.

For the compound `COc1cc(C(=O)Nc2cccc(NC(=O)c3cc(OC)c(OC)c(OC)c3)c2)cc(OC)c1OC` [JW1, N,N′-(1,3-phenylene)bis(3,4,5-trimethoxybenzamide)], the IC50 in test [4] amounted to 770 ± 18 nM; in test [5] it was 54400 ± 1300 nM.

With `COc1cc(OC)cc(C(=O)Nc2cccc(NC(=O)c3cc(OC)cc(OC)c3)c2)c1` [JW2, N,N′-(1,3-phenylene)bis(3,5-dimethoxybenzamide)], the IC50 in test [4] worked out at 2570 ± 63 nM; in test [5], 74000 ± 1610 nM.

With `COc1ccc(C(=O)Nc2cccc(NC(=O)c3ccc(OC)c(OC)c3)c2)cc1OC` [JW3, N,N′-(1,3-phenylene)bis(3,4-dimethoxybenzamide)], the IC50 turned out to be 410 ± 28 nM in test [4] and 40200 ± 8120 nM in test [5].

As to `COc1cccc(C(=O)Nc2cccc(NC(=O)c3cccc(OC)c3)c2)c1` [JW4, N,N′-(1,3-phenylene)bis(3-methoxybenzamide)], the IC50 in test [4] amounted to 1200 ± 13 nM; in test [5], 81400 ± 4110 nM.

As to `COc1cc(C(=O)Nc2ccc(NC(=O)c3cc(OC)c(OC)c(OC)c3)cc2)cc(OC)c1OC` [JW5, N,N′-(1,4-phenylene)bis(3,4,5-trimethoxybenzamide)], the IC50 in test [4] worked out at 68 ± 58 nM; in test [5] it was 9290 ± 3020 nM.

As to `COc1cc(OC)cc(C(=O)Nc2ccc(NC(=O)c3cc(OC)cc(OC)c3)cc2)c1` [JW6, N,N′-(1,4-phenylene)bis(3,5-dimethoxybenzamide)], the IC50 turned out to be 190 ± 33 nM in test [4] and 16700 ± 250 nM in test [5].

Consider `COc1ccc(C(=O)Nc2ccc(NC(=O)c3ccc(OC)c(OC)c3)cc2)cc1OC` [JW7, N,N′-(1,4-phenylene)bis(3,4-dimethoxybenzamide)], for which the IC50 came to 70 ± 3 nM in test [4] and 12800 ± 230 nM in test [5].

For the compound `COc1cccc(C(=O)Nc2ccc(NC(=O)c3cccc(OC)c3)cc2)c1` [JW8, N,N′-(1,4-phenylene)bis(3-methoxybenzamide)], the IC50 came out at 56 ± 43 nM in test [4] and 9010 ± 280 nM in test [5].

Consider `COc1cc(C(=O)Nc2cccc([N+](=O)[O-])c2)cc(OC)c1OC` [MB1, 3,4,5-trimethoxy-N-(3-nitrophenyl)benzamide], for which the IC50 in test [4] is 670 ± 8 nM; in test [5], 40500 ± 2200 nM.

With `COc1cc(NC(=O)c2cc(OC)c(OC)c(OC)c2)cc(OC)c1OC` [MB3, 3,4,5-trimethoxy-N-(3,4,5-trimethoxyphenyl)benzamide], the IC50 turned out to be 110 ± 78 nM in test [4] and 20200 ± 5130 nM in test [5].

Turning to `COc1cc(CNC(=O)c2cc(OC)c(OC)c(OC)c2)cc(OC)c1OC` [MB4, 3,4,5-trimethoxy-N-(3,4,5-trimethoxybenzyl)benzamide], the IC50 in test [4] turned out to be 1170 ± 15 nM; in test [5], 87700 ± 6220 nM.

For `O=C(NCCCCCCCCCCNc1c2c(nc3ccccc13)CCCC2)c1cc(=O)c2cc(O)ccc2o1` [Molecule VIII], the IC50 is 8 nM in test [6] (human AChE, read-out: IC50 for AChE) and 2800 nM in test [7] (read-out: IC50 for BACE-1).

Consider `OC(CNCc1cccc(COc2ccccc2)c1)Cn1cc(Br)c2cc(Br)ccc21` (centres unmarked) [compound IX], for which the IC50 in test [1] (read-out: AChE IC50) was 9100 nM; in test [2] (read-out: BACE-1 IC50) it was 2500 nM.

Regarding `COc1ccc(C(=O)N(Cc2ccc(Cl)cc2)c2cccc(Br)c2)cc1OC` [compound I], the IC50 in test [1] (read-out: AChE IC50) was 1570 nM; in test [3] (read-out: BuChE IC50) it was 2850 nM.

As to `O=C(NCc1cc(Cl)cc(Cl)c1)c1cc(Br)ccc1O` [compound VI], the IC50 in test [1] (read-out: inhibitory potency of AChE activity) is 33100 ± 470 nM.

On to `CC(=O)c1ccccc1NC(=O)c1ccc(OCCCCC[n+]2ccccc2)cc1` [compound XI], for which the inhibition constant (Ki) in test [6] (read-out: hAChE Ki) was 81 nM; in test [8], 93 nM. In addition, the IC50 in test [2] is 310 nM.

Regarding `COc1ccc(CNC(=O)C2CCN(C(=O)c3ccccc3)CC2)cc1OC` [compound X], the IC50 in test [6] (in humans, read-out: AChE IC50) was 4.11 nM; in test [7] (in humans, read-out: BACE-1 IC50) it was 18.3 nM.

On to `COc1ccc(C(=O)Nc2nc(CN(C)Cc3ccccc3)cs2)cc1` [substance II], for which the IC50 is 1470 nM in test [1] (read-out: AChE IC50) and 11400 nM in test [3] (read-out: BuChE IC50).
